The text below walks through data of patent publication US20250145594A1, “MODULATORS OF THE INTEGRATED STRESS PATHWAY” (Calico Life Sciences LLC, priority 2020, published 2025).

Structures are written as SMILES.

In one test the test system is ATF4 luciferase reporter in HEK293T cells. Nature of the test: ATF4-Luc assay (in vitro model of VWMD). Particulars: HEK293T cells carrying the ATF4 luciferase reporter, 1 μg/mL tunicamycin, 7 hours, One Glo luminescence. The format is cell-based, human. A digest of the protocol:
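Stable HEK293T line expressing firefly luciferase behind the human ATF4 5′-UTR, treated with 1 μg/mL tunicamycin plus compound for 7 hours. Luminescence read with One Glo; EC50 determined.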
Background: A reporter such as luciferase makes a cellular process visible.
One may read the EC50 as the concentration at which the effect is half-maximal. With `O=C(COc1ccc(Cl)c(F)c1)NC12CC(n3cc(OCCOC(F)(F)F)cn3)(C1)C2` [Compound 617, 2-(4-chloro-3-fluorophenoxy)-N-(3-{4-[2-(trifluoromethoxy)ethoxy]-1H-pyrazol-1-yl}bicyclo[1.1.1]pentan-1-yl)acetamide], the EC50 is less than 10 nM.

Still in this test, the particulars now being: Homo sapiens, HEK-293T, 7 h, HEK293T cells carrying the ATF4 luciferase reporter, 1 μg/mL tunicamycin, One Glo luminescence.
As for `O=C(NC12CC(n3cc([C@H]4C[C@@H](OC(F)(F)F)C4)nn3)(C1)C2)[C@H]1C[C@@H](O)c2cc(Cl)c(F)cc2O1` [Compound 473, (2R,4R)-6-chloro-7-fluoro-4-hydroxy-N-(3-{4-[(1s,3S)-3-(trifluoromethoxy)cyclobutyl]-1H-1,2,3-triazol-1-yl}bicyclo[1.1.1]pentan-1-yl)-3,4-dihydro-2H-1-benzopyran-2-carboxamide], the EC50 is less than 10 nM.

Regarding `O=C(NC12CC(n3cc(OCCCC(F)(F)F)cn3)(C1)C2)[C@H]1C[C@@H](O)c2cc(C(F)(F)F)c(F)cc2O1` [Compound 641, (2R,4R)-7-fluoro-4-hydroxy-N-{3-[4-(4,4,4-trifluorobutoxy)-1H-pyrazol-1-yl]bicyclo[1.1.1]pentan-1-yl}-6-(trifluoromethyl)-3,4-dihydro-2H-1-benzopyran-2-carboxamide], the EC50 is less than 10 nM.

In the case of `O=C(NC12CC(c3ccnc(-n4cc(C(F)(F)F)cn4)c3)(C1)C2)[C@H]1C[C@@H](O)c2cc(Cl)c(F)cc2O1` [Compound 561, (2R,4R)-6-chloro-7-fluoro-4-hydroxy-N-(3-{2-[4-(trifluoromethyl)-1H-pyrazol-1-yl]pyridin-4-yl}bicyclo[1.1.1]pentan-1-yl)-3,4-dihydro-2H-1-benzopyran-2-carboxamide], the EC50 is less than 10 nM.

For `O=C(NC12CC(n3cc(OCCCC(F)(F)F)cn3)(C1)C2)[C@H]1C[C@@H](O)c2cc(Cl)ccc2O1` [Compound 517, (2R,4R)-6-chloro-4-hydroxy-N-{3-[4-(4,4,4-trifluorobutoxy)-1H-pyrazol-1-yl]bicyclo[1.1.1]pentan-1-yl}-3,4-dihydro-2H-1-benzopyran-2-carboxamide], the EC50 is less than 10 nM.

On to `O=C(COc1ccc(Cl)c(F)c1)NC12CC(C(=O)NC34CC(C(F)(F)F)(C3)C4)(C1)C2` [Compound 353, 3-[2-(4-chloro-3-fluorophenoxy)acetamido]-N-[3-(trifluoromethyl)bicyclo[1.1.1]pentan-1-yl]bicyclo[1.1.1]pentane-1-carboxamide], for which the EC50 lay in the range of 50 to 250 nM.

For `O=C(NC12CC(n3cc([C@H]4C[C@@H](OC(F)F)C4)nn3)(C1)C2)[C@H]1C[C@@H](O)c2cc(Cl)ccc2O1` [Compound 544, (2R,4R)-6-chloro-N-(3-{4-[(1s,3S)-3-(difluoromethoxy)cyclobutyl]-1H-1,2,3-triazol-1-yl}bicyclo[1.1.1]pentan-1-yl)-4-hydroxy-3,4-dihydro-2H-1-benzopyran-2-carboxamide], the concentration giving a half-maximal response (EC50) was less than 10 nM.

For `O=C(NC12CC(n3cc(OCCOC(F)(F)F)cn3)(C1)C2)[C@H]1CNc2cc(Cl)ccc2O1` [Compound 518, (2R)-6-chloro-N-(3-{4-[2-(trifluoromethoxy)ethoxy]-1H-pyrazol-1-yl}bicyclo[1.1.1]pentan-1-yl)-3,4-dihydro-2H-1,4-benzoxazine-2-carboxamide], the EC50 was in the range of 10 to 50 nM.

On to `O=C(NC12CC(c3cnn(CCCOC(F)(F)F)c3)(C1)C2)[C@H]1C[C@@H](O)c2cc(Cl)ccc2O1` [Compound 528, (2R,4R)-6-chloro-4-hydroxy-N-(3-{1-[3-(trifluoromethoxy)propyl]-1H-pyrazol-4-yl}bicyclo[1.1.1]pentan-1-yl)-3,4-dihydro-2H-1-benzopyran-2-carboxamide], for which the concentration giving a half-maximal response (EC50) was 10 to 50 nM.

On to `O=C(NC12CC(n3cc(-c4ccc(OC(F)(F)F)cn4)cn3)(C1)C2)[C@H]1C[C@H](O)c2cc(Cl)c(F)cc2O1` [Compound 476, (2R,4S)-6-chloro-7-fluoro-4-hydroxy-N-(3-{4-[5-(trifluoromethoxy)pyridin-2-yl]-1H-pyrazol-1-yl}bicyclo[1.1.1]pentan-1-yl)-3,4-dihydro-2H-1-benzopyran-2-carboxamide], for which the EC50 is less than 10 nM.

Regarding `O=C(NC12CC(n3cc(CN4CC[C@H](OC(F)(F)F)C4)cn3)(C1)C2)[C@H]1C[C@@H](O)c2cc(Cl)ccc2O1` [Compound 339, (2R,4R)-6-chloro-4-hydroxy-N-[3-(4-{[(3S)-3-(trifluoromethoxy)pyrrolidin-1-yl]methyl}-1H-pyrazol-1-yl)bicyclo[1.1.1]pentan-1-yl]-3,4-dihydro-2H-1-benzopyran-2-carboxamide], the EC50 lay in the range of 250 to 500 nM.

On to `O=C(NC12CC(n3cc(-c4cnn(C(F)(F)F)c4)cn3)(C1)C2)[C@H]1C[C@@H](O)c2cc(Cl)c(F)cc2O1` [Compound 479, (2R,4R)-6-chloro-7-fluoro-4-hydroxy-N-{3-[1′-(trifluoromethyl)-1H,1′H-[4,4′-bipyrazol]-1-yl]bicyclo[1.1.1]pentan-1-yl}-3,4-dihydro-2H-1-benzopyran-2-carboxamide], for which the concentration for a half-maximal effect (EC50) was less than 10 nM.

On to `O=C(NC12CC(n3cc(OCCOC(F)(F)F)cn3)(C1)C2)[C@H]1C[C@@H](O)c2cc(Cl)c(Cl)cc2O1` [Compound 442, (2R,4R)-6,7-dichloro-4-hydroxy-N-(3-{4-[2-(trifluoromethoxy)ethoxy]-1H-pyrazol-1-yl}bicyclo[1.1.1]pentan-1-yl)-3,4-dihydro-2H-1-benzopyran-2-carboxamide], for which the EC50 is less than 10 nM.

For the molecule `O=C(NC12CC(n3cc(CCCC(F)(F)F)cn3)(C1)C2)[C@H]1C[C@@H](O)c2cc(Cl)c(F)cc2O1` [Compound 520, (2R,4R)-6-chloro-7-fluoro-4-hydroxy-N-{3-[4-(4,4,4-trifluorobutyl)-1H-pyrazol-1-yl]bicyclo[1.1.1]pentan-1-yl}-3,4-dihydro-2H-1-benzopyran-2-carboxamide], the EC50 lay within 10 to 50 nM.

Take `CCOc1ccc2nn(C34CC(NC(=O)COc5ccc(Cl)c(Cl)c5)(C3)C4)cc2c1` [Compound 623, 2-(3,4-dichlorophenoxy)-N-[3-(5-ethoxy-2H-indazol-2-yl)bicyclo[1.1.1]pentan-1-yl]acetamide]: the EC50 was less than 10 nM.

For the molecule `O=C(NC12CC(c3ccnc(OCCOC(F)(F)F)n3)(C1)C2)[C@H]1C[C@@H](O)c2cc(C(F)(F)F)c(F)cc2O1` [Compound 593, (2R,4R)-7-fluoro-4-hydroxy-N-(3-{2-[2-(trifluoromethoxy)ethoxy]pyrimidin-4-yl}bicyclo[1.1.1]pentan-1-yl)-6-(trifluoromethyl)-3,4-dihydro-2H-1-benzopyran-2-carboxamide], the EC50 lay in the range of 10 to 50 nM.

Take `O=C(NC12CC(n3cnc([C@H]4C[C@@H](OC(F)(F)F)C4)c3)(C1)C2)[C@H]1C[C@@H](O)c2cc(Cl)c(F)cc2O1` [Compound 472, (2R,4R)-6-chloro-7-fluoro-4-hydroxy-N-(3-{4-[(1s,3S)-3-(trifluoromethoxy)cyclobutyl]-1H-imidazol-1-yl}bicyclo[1.1.1]pentan-1-yl)-3,4-dihydro-2H-1-benzopyran-2-carboxamide]: the EC50 is less than 10 nM.

Take `O=C(NC12CC(c3cn(-c4ccc(Cl)c(F)c4)nn3)(C1)C2)[C@H]1C[C@@H](O)c2cc(Cl)ccc2O1` [Compound 311, (2R,4R)-6-chloro-N-{3-[1-(4-chloro-3-fluorophenyl)-1H-1,2,3-triazol-4-yl]bicyclo[1.1.1]pentan-1-yl}-4-hydroxy-3,4-dihydro-2H-1-benzopyran-2-carboxamide]: the EC50 was less than 10 nM.

As for `O=C1C[C@H](C(=O)N[C@H]2C[C@H]3CC[C@@H](C2)N3CCCOc2ccc(Cl)cc2)Oc2ccc(Cl)cc21` [Compound 101, (2R)-6-chloro-N-{(1R,3r,5S)-8-[3-(4-chlorophenoxy)propyl]-8-azabicyclo[3.2.1]octan-3-yl}-4-oxo-3,4-dihydro-2H-1-benzopyran-2-carboxamide], the EC50 was more than 2000 nM.

Regarding `O=C(NC12CC(n3cc(-c4ccc(OC(F)(F)F)cn4)cn3)(C1)C2)[C@@H]1C[C@@H](O)c2cc(Cl)ccc2O1` [Compound 346, (2S,4R)-6-chloro-4-hydroxy-N-(3-{4-[5-(trifluoromethoxy)pyridin-2-yl]-1H-pyrazol-1-yl}bicyclo[1.1.1]pentan-1-yl)-3,4-dihydro-2H-1-benzopyran-2-carboxamide], the EC50 is less than 10 nM.

For the molecule `O=C(NC12CC(n3cc(-c4ccc(OC(F)(F)F)cn4)cn3)(C1)C2)[C@H]1C[C@@H](O)c2cc(C(F)(F)F)ccc2O1` [Compound 403, (2R,4R)-4-hydroxy-N-(3-{4-[5-(trifluoromethoxy)pyridin-2-yl]-1H-pyrazol-1-yl}bicyclo[1.1.1]pentan-1-yl)-6-(trifluoromethyl)-3,4-dihydro-2H-1-benzopyran-2-carboxamide], the concentration for a half-maximal effect (EC50) was less than 10 nM.

With `O=C(N[C@H]1C[C@@H](OC(F)(F)F)C1)c1cnn(C23CC(NC(=O)[C@H]4C[C@@H](O)c5cc(Cl)ccc5O4)(C2)C3)c1` [Compound 376, 1-(3-{[(2R,4R)-6-chloro-4-hydroxy-3,4-dihydro-2H-1-benzopyran-2-carbonyl]amino}bicyclo[1.1.1]pentan-1-yl)-N-[cis-3-(trifluoromethoxy)cyclobutyl]-1H-pyrazole-4-carboxamide], the EC50 lay in the range of 50 to 250 nM.

Take `O=C(NC12CC(OCC(=O)N3CC(COC(F)(F)F)C3)(C1)C2)[C@H]1C[C@@H](O)c2cc(Cl)ccc2O1` [Compound 335, (2R,4R)-6-chloro-4-hydroxy-N-[3-(2-oxo-2-{3-[(trifluoromethoxy)methyl]azetidin-1-yl}ethoxy)bicyclo[1.1.1]pentan-1-yl]-3,4-dihydro-2H-1-benzopyran-2-carboxamide]: the EC50 is 50 to 250 nM.

As for `O=C(NC12CC(n3cc(-c4ccc(OC(F)(F)F)cn4)cn3)(C1)C2)[C@H]1C[C@H](O)c2cc(C(F)(F)F)c(F)cc2O1` [Compound 634, (2R,4S)-7-fluoro-4-hydroxy-N-(3-{4-[5-(trifluoromethoxy)pyridin-2-yl]-1H-pyrazol-1-yl}bicyclo[1.1.1]pentan-1-yl)-6-(trifluoromethyl)-3,4-dihydro-2H-1-benzopyran-2-carboxamide], the concentration giving a half-maximal response (EC50) is less than 10 nM.
